Reference: patent US9174994B2, “Enhanced treatment regimens using mTor inhibitors” (INTELLIKINE LLC, priority 2011, dated 2015)

Assay: Phase I clinical trial: treatment-emergent adverse events (patients, n (%)), dose limiting toxicity, MTD
Format: in vivo
[1] = Table 8: Total QDx5d QW (N = 6)
[2] = Table 8: Total QW Dosing (N = 15)
[3] = all 3 intermittent dosing regimens, n=35

Protocol: Safety, maximum tolerated dose (MTD), pharmacokinetics (PK) and preliminary antitumor activity were evaluated.
Pharmacodynamic (PD) endpoints were evaluated in surrogate (peripheral blood cells [PBCs], skin) and tumor tissues for the phosphorylation of TORC1-dependent markers (4EBP1/S6), and TORC2-dependent markers (AKT/PRAS40).

CC(C)n1nc(-c2ccc3oc(N)nc3c2)c2c(N)ncnc21 [compound A]
Weight decreased (Table 8: Total QDx3d QW (N = 14)): 0 (0%) | Catheter site inflammation [1]: 0 (0%) | Catheter site pain [1]: 0 (0%) | Coagulopathy [1]: 0 (0%) | Confusional state [1]: 0 (0%) | Cough [1]: 0 (0%) | DIARRHEA [1]: 0 (0%) | Dizziness [1]: 0 (0%) | Dyspnoea exertional [1]: 0 (0%) | Eye infection [1]: 0 (0%) | Fatigue [1]: 0 (0%) | Gastritis [1]: 0 (0%) | Gravitational oedema [1]: 0 (0%) | Headache [1]: 0 (0%) | Hyperbilirubinaemia [1]: 0 (0%) | Hypertransaminasaemia [1]: 0 (0%) | Hypertriglyceridaemia [1]: 0 (0%) | Hypocalcaemia [1]: 0 (0%) | Hypomagnesaemia [1]: 0 (0%) | Hypotension [1]: 0 (0%) | Insomnia [1]: 0 (0%) | Low fever [1]: 0 (0%) | Malaise [1]: 0 (0%) | Nausea [1]: 1 (17%) | Oral discomfort [1]: 0 (0%) | Orthostatic hypotension [1]: 0 (0%) | Palmar-plantar erythrodysaesthesia syndrome [1]: 0 (0%) | Panniculitis [1]: 0 (0%) | Platelet count decreased [1]: 0 (0%) | Polyuria [1]: 0 (0%) | Pyrexia [1]: 0 (0%) | Rash [1]: 0 (0%) | Rash macular [1]: 0 (0%) | Skin discolouration [1]: 0 (0%) | Skin exfoliation [1]: 0 (0%) | Urinary tract infection [1]: 0 (0%) | Urine tract infection [1]: 1 (17%) | Vomiting [1]: 1 (17%) | WEAKNESS [1]: 0 (0%) | Weight decreased [1]: 0 (0%) | Catheter site inflammation [2]: 0 (0%) | Catheter site pain [2]: 0 (0%) | Coagulopathy [2]: 0 (0%) | Confusional state [2]: 0 (0%) | Cough [2]: 0 (0%) | DIARRHEA [2]: 1 (7%) | Dizziness [2]: 0 (0%) | Dyspnoea exertional [2]: 0 (0%) | Eye infection [2]: 0 (0%) | Fatigue [2]: 0 (0%) | Gastritis [2]: 0 (0%) | Gravitational oedema [2]: 0 (0%) | Headache [2]: 0 (0%) | Hyperbilirubinaemia [2]: 0 (0%) | Hypertransaminasaemia [2]: 0 (0%) | Hypertriglyceridaemia [2]: 0 (0%) | Hypocalcaemia [2]: 0 (0%) | Hypomagnesaemia [2]: 0 (0%) | Hypotension [2]: 0 (0%) | Insomnia [2]: 0 (0%) | Low fever [2]: 0 (0%) | Malaise [2]: 1 (7%) | Nausea [2]: 0 (0%) | Oral discomfort [2]: 1 (7%) | Orthostatic hypotension [2]: 0 (0%) | Palmar-plantar erythrodysaesthesia syndrome [2]: 0 (0%) | Panniculitis [2]: 0 (0%) | Platelet count decreased [2]: 0 (0%) | Polyuria [2]: 0 (0%) | Pyrexia [2]: 0 (0%) | Rash [2]: 1 (7%) | Rash macular [2]: 0 (0%) | Skin discolouration [2]: 0 (0%) | Skin exfoliation [2]: 0 (0%) | Urinary tract infection [2]: 0 (0%) | Urine tract infection [2]: 0 (0%) | Vomiting [2]: 0 (0%) | WEAKNESS [2]: 1 (7%) | Weight decreased [2]: 0 (0%) | Grade 3 or greater TEAE: Abdominal pain upper (Total (N = 60)): 1 (2%) | Grade 3 or greater TEAE: Anaemia (Total (N = 60)): 1 (2%) | Grade 3 or greater TEAE: Aspartate aminotransferase increased (Total (N = 60)): 1 (2%) | Grade 3 or greater TEAE: Asthenia (Total (N = 60)): 1 (2%) | Grade 3 or greater TEAE: Catheter related infection (Total (N = 60)): 1 (2%) | Grade 3 or greater TEAE: Cellulitis (Total (N = 60)): 1 (2%) | Grade 3 or greater TEAE: Diarrhoea (Total (N = 60)): 3 (5%) | Grade 3 or greater TEAE: Disease progression (Total (N = 60)): 1 (2%) | Grade 3 or greater TEAE: Enterocutaneous fistula (Total (N = 60)): 1 (2%) | Grade 3 or greater TEAE: Gamma-glutamyltransferase increased (Total (N = 60)): 2 (3%) | Grade 3 or greater TEAE: Gastroenteritis (Total (N = 60)): 1 (2%) | Grade 3 or greater TEAE: Hyperglycaemia (Total (N = 60)): 5 (8%) | Grade 3 or greater TEAE: Hypokalaemia (Total (N = 60)): 2 (3%) | Grade 3 or greater TEAE: Hyponatraemia (Total (N = 60)): 2 (3%) | Grade 3 or greater TEAE: Lymphopenia (Total (N = 60)): 4 (7%) | Grade 3 or greater TEAE: Pancreatitis acute (Total (N = 60)): 1 (2%) | Grade 3 or greater TEAE: Pleural effusion (Total (N = 60)): 1 (2%) | Grade 3 or greater TEAE: Pruritus (Total (N = 60)): 2 (3%) | Grade 3 or greater TEAE: Rash (Total (N = 60)): 7 (12%) | Grade 3 or greater TEAE: Rash macular (Total (N = 60)): 1 (2%) | Grade 3 or greater TEAE: Somnolence (Total (N = 60)): 1 (2%) | Grade 3 or greater TEAE: Thrombocytopenia (Total (N = 60)): 2 (3%) | Grade 3 or greater TEAE: Urinary tract infection (Total (N = 60)): 1 (2%) | Patients Reporting at Least One Grade 3 or Greater TEAE (Total (N = 60)): 25 (42%) | Anaemia (Total QD Dosing (N = 25)): 2 (8%) | Asthenia (Total QD Dosing (N = 25)): 6 (24%) | Blood creatinine increased (Total QD Dosing (N = 25)): 6 (24%) | Coagulopathy (Total QD Dosing (N = 25)): 1 (4%) | Confusional state (Total QD Dosing (N = 25)): 1 (4%) | Cough (Total QD Dosing (N = 25)): 1 (4%) | Decreased appetite (Total QD Dosing (N = 25)): 6 (24%) | Dehydration (Total QD Dosing (N = 25)): 2 (8%) | Diarrhoea (Total QD Dosing (N = 25)): 8 (32%) | Dizziness (Total QD Dosing (N = 25)): 1 (4%) | Dry mouth (Total QD Dosing (N = 25)): 5 (20%) | Dry skin (Total QD Dosing (N = 25)): 1 (4%) | Dysgeusia (Total QD Dosing (N = 25)): 8 (32%) | Dyspepsia (Total QD Dosing (N = 25)): 1 (4%) | Dyspnoea (Total QD Dosing (N = 25)): 1 (4%) | Dyspnoea exertional (Total QD Dosing (N = 25)): 1 (4%) | Eye infection (Total QD Dosing (N = 25)): 1 (4%) | Fatigue (Total QD Dosing (N = 25)): 6 (24%) | Gastritis (Total QD Dosing (N = 25)): 1 (4%) | Gravitational oedema (Total QD Dosing (N = 25)): 1 (4%) | Hypercholesterolaemia (Total QD Dosing (N = 25)): 5 (20%) | Hyperglycaemia (Total QD Dosing (N = 25)): 22 (88%) | Hypocalcaemia (Total QD Dosing (N = 25)): 1 (4%) | Insomnia (Total QD Dosing (N = 25)): 1 (4%) | Lymphopenia (Total QD Dosing (N = 25)): 3 (12%) | Mucosal inflammation (Total QD Dosing (N = 25)): 8 (32%) | Muscle spasms (Total QD Dosing (N = 25)): 1 (4%) | Nausea (Total QD Dosing (N = 25)): 9 (36%) | Orthostatic hypotension (Total QD Dosing (N = 25)): 1 (4%) | Panniculitis (Total QD Dosing (N = 25)): 1 (4%) | Patients Reporting at Least One Related TEAE (Total QD Dosing (N = 25)): 25 (100%) | Polyuria (Total QD Dosing (N = 25)): 1 (4%) | Pruritus (Total QD Dosing (N = 25)): 9 (36%) | Rash (Total QD Dosing (N = 25)): 13 (52%) | Skin discolouration (Total QD Dosing (N = 25)): 1 (4%) | Skin exfoliation (Total QD Dosing (N = 25)): 1 (4%) | Thrombocytopenia (Total QD Dosing (N = 25)): 4 (16%) | Vomiting (Total QD Dosing (N = 25)): 6 (24%) | Weight decreased (Total QD Dosing (N = 25)): 1 (4%) | Alanine aminotransferase increased (Total QDx3d QW (N = 14)): 1 (7%) | Asthenia (Total QDx3d QW (N = 14)): 3 (21%) | Catheter site inflammation (Total QDx3d QW (N = 14)): 1 (7%) | Catheter site pain (Total QDx3d QW (N = 14)): 1 (7%) | Decreased appetite (Total QDx3d QW (N = 14)): 1 (7%) | Diarrhoea (Total QDx3d QW (N = 14)): 2 (14%) | Dry skin (Total QDx3d QW (N = 14)): 1 (7%) | Dysgeusia (Total QDx3d QW (N = 14)): 1 (7%) | Dyspnoea (Total QDx3d QW (N = 14)): 1 (7%) | Fatigue (Total QDx3d QW (N = 14)): 1 (7%) | Headache (Total QDx3d QW (N = 14)): 1 (7%) | Hyperbilirubinaemia (Total QDx3d QW (N = 14)): 1 (7%) | Hypercholesterolaemia (Total QDx3d QW (N = 14)): 1 (7%) | Hyperglycaemia (Total QDx3d QW (N = 14)): 6 (43%) | Hypertransaminasaemia (Total QDx3d QW (N = 14)): 1 (7%) | Hypertriglyceridaemia (Total QDx3d QW (N = 14)): 1 (7%) | Hypomagnesaemia (Total QDx3d QW (N = 14)): 1 (7%) | Hypotension (Total QDx3d QW (N = 14)): 1 (7%) | Low fever (Total QDx3d QW (N = 14)): 1 (7%) | Lymphopenia (Total QDx3d QW (N = 14)): 1 (7%) | Mucosal inflammation (Total QDx3d QW (N = 14)): 7 (50%) | Nausea (Total QDx3d QW (N = 14)): 6 (43%) | Palmar-plantar erythrodysaesthesia syndrome (Total QDx3d QW (N = 14)): 1 (7%) | Patients Reporting at Least One Related TEAE (Total QDx3d QW (N = 14)): 11 (79%) | Platelet count decreased (Total QDx3d QW (N = 14)): 1 (7%) | Pruritus (Total QDx3d QW (N = 14)): 4 (29%) | Pyrexia (Total QDx3d QW (N = 14)): 1 (7%) | Rash (Total QDx3d QW (N = 14)): 4 (29%) | Rash macular (Total QDx3d QW (N = 14)): 1 (7%) | Urinary tract infection (Total QDx3d QW (N = 14)): 1 (7%) | Vomiting (Total QDx3d QW (N = 14)): 3 (21%) | Asthenia (Total QDx3d QW (N = 14), 2nd Asthenia line): 1 (7%) | Diarrhoea (Total QDx5d QW (N = 6)): 1 (17%) | Patients Reporting at Least One Related TEAE (Total QDx5d QW (N = 6)): 2 (33%) | Rash (Total QDx5d QW (N = 6)): 1 (17%) | Urine tract infection (Total QDx5d QW (N = 6)): 1 (17%) | Vomiting (Total QDx5d QW (N = 6)): 1 (17%) | Nausea (Total QDx5d QW (N = 6), 1st Nausea line): 1 (17%) | Nausea (Total QDx5d QW (N = 6), 2nd Nausea line): 1 (17%) | ASTHENIA (Total QW Dosing (N = 15)): 1 (7%) | ATHENIA (Total QW Dosing (N = 15)): 1 (7%) | Alanine aminotransferase increased (Total QW Dosing (N = 15)): 1 (7%) | Aspartate aminotransferase increased (Total QW Dosing (N = 15)): 2 | Asthenia (Total QW Dosing (N = 15)): 2 | Blood creatinine increased (Total QW Dosing (N = 15)): 1 (7%) | Blood triglycerides increased (Total QW Dosing (N = 15)): 1 (7%) | DIARRHEA (Total QW Dosing (N = 15)): 1 (7%) | Decreased appetite (Total QW Dosing (N = 15)): 1 (7%) | Diarrhoea (Total QW Dosing (N = 15)): 3 | Dysgeusia (Total QW Dosing (N = 15)): 1 (7%) | Dyspepsia (Total QW Dosing (N = 15)): 1 (7%) | HYPERGLYCEMIA (Total QW Dosing (N = 15)): 2 | Hyperglycaemia (Total QW Dosing (N = 15)): 5 | Lymphopenia (Total QW Dosing (N = 15)): 1 (7%) | Malaise (Total QW Dosing (N = 15)): 1 (7%) | Mucosal inflammation (Total QW Dosing (N = 15)): 3 | Muscle spasms (Total QW Dosing (N = 15)): 1 (7%) | Nausea (Total QW Dosing (N = 15)): 10 | Oral discomfort (Total QW Dosing (N = 15)): 1 (7%) | Patients Reporting at Least One Related TEAE (Total QW Dosing (N = 15)): 13 | Pruritus (Total QW Dosing (N = 15)): 1 (7%) | RASH (Total QW Dosing (N = 15)): 1 (7%) | Rash (Total QW Dosing (N = 15)): 1 (7%) | Vomiting (Total QW Dosing (N = 15)): 5 | WEAKNESS (Total QW Dosing (N = 15)): 1 (7%) | asthenia, AE considered possibly related [3]: 23% | diarrhea, AE considered possibly related [3]: 20% | hyperglycemia, AE considered possibly related [3]: 37% | mucosal inflammation, AE considered possibly related [3]: 29% | nausea, AE considered possibly related [3]: 51% | rash, AE considered possibly related [3]: 23% | vomiting, AE considered possibly related [3]: 26% | grade of the majority of AEs considered possibly related (any regimen): Grade 1 or 2 | MTD (intermittent dosing): not reached
